Source: patent publication US20150031739A1, “PANOBINOSTAT FOR USE IN THE TREATMENT OF HIV-1” (Aarhus Universitet, priority 2012, published 2015)

Legend:
[1] = tested on: CD69 expression in CD4+ T-cells; assay: Activation of primary T lymphocytes (CD69 expression, flow cytometry); assay type: cell-based, human; details: 16 hours
Protocol: Expression of the early activation marker CD69 was assessed by flow cytometry in 8 separate experiments with data from one representative experiment shown in figure.
Activation of primary T lymphocytes: PBMC's are purified using Ficoll Paque gradient centrifugation from fresh blood obtained from healthy donors. 5*10^5 cells are stimulated by different concentrations of HDACi in final volume of 500 uL RPMI media supplemented with 10% heat inactivated Foetal Bovine Serum and 1% penicillin/streptomycin. After 16 hours cells are harvested and washed once in PBS. Cells are stained with Live-dead near IR at a final concentration of 2 uM (Invitrogen, Denmark) for 30 min on ice. Cells are washed twice in PBS. Five uL Fc Block (Sigma, Denmark) at 10 mg/mL is added and cells are incubated 10 min on ice. Cells are subsequently stained with 5 uL CD4 PerCPCy5.5, 5 uL CD27 PE-Cy7, 7 uL CD45RA FITC, 20 uL CCR7 PE all (BD, USA) and 10 uL CD69 APC (BioLegend, USA) for 30 min on ice. Lastly, cells are washed once in PBS and resuspended in FACS flow buffer and stored on ice until analysis by flow cytometry.

Cytotoxicity of LBH589 = assay type: cell-based; details: up to 30 nM
CD4+ T cells = assay: CD4+ T cell counts in blood during panobinostat treatment; assay type: in vivo, human; details: intermittent dosing over 51 days, 20 mg oral TIW every other week, HIV-1 patients on HAART
Protocol: Measurement of CD4+ T cell counts was performed by flow cytometry as part of routine diagnostics evaluation of HIV-1 patients.

[2] = 20 mg oral; cited from earlier work

Cc1[nH]c2ccccc2c1CCNCc1ccc(/C=C/C(=O)NO)cc1 [LBH589, N-Hydroxy-3-[4-[2-(2-methyl-1H-indol-3-yl)ethylaminomethyl]phenyl]-2(E)-propenamide]
concentration at which induction of CD69 expression occurred, compared with other HDACi ([1]; CD4+ T-cells): much lower concentrations of LBH589 than ITF2357, PXD101, and SAHA
proportion of primary T-cells expressing the early activation marker CD69 ([1]; PBMCs from healthy donors, increasing concentrations (2-31 nM), compared to untreated cells): increased
CD69 expression in memory T-cell subsets ([1]; central memory T-cells): highest levels
cytotoxicity (Cytotoxicity of LBH589): No cytotoxicity above background
effect on CD4+ T cell counts in blood (CD4+ T cells): no immune deterioration
maximal plasma concentration [2]: approximately 60 nM
